In patent publication US20230219925A1, “BENZO FIVE-MEMBERED NITROGEN HETEROCYCLIC COMPOUND AND APPLICATION THEREOF” (GUANGZHOU INSTITUTES OF BIOMEDICINE AND HEALTH CHINESE …, priority 2020, published 2023):
Like-named read-outs stand apart in the source and are kept apart here. One block for each molecule: values may come before it.

Tests used:
[1] = Pharmacokinetic evaluations in SD rats; type: in vivo; conditions: Sprague-Dawley, rat, plasma
Experimental: Experimental materials: the pharmacokinetic analyses were carried out by Shanghai Medicilon Corporation. Sprague-Dawley (SD) rats were provided by Shanghai Super-B&K Laboratory Animal Corp., Ltd.
The stock solution was orally administered to three SD rats at a dose of 25 mg/kg and administered to three SD rats through intravenous injection at a single dose of 5 mg/kg. Blood was collected from jugular veins before the oral administration and 0.25, 0.5, 1, 2, 4, 6, 8 and 24 hours after the oral administration. Blood was collected from jugular veins before the intravenous injection and 0.083, 0.25, 0.5, 1, 2, 4, 6, 8 and 24 hours after the intravenous injection. About 200 μL of the blood samples were collected into heparinized tubes and then immediately centrifuged at 8000 r/min for 6 minutes to obtain blood plasma. The obtained blood plasma was storaged at −80° C. until analysis.

22Rv1 xenograft = conditions: for TGI: five days a week for three weeks
Experimental: Experimental purpose: a xenograft mouse experiment was used for verifying inhibitory effects of the compounds of the present application on tumors in vivo.
Experimental methods: three-week-old male mice (strain: NOD/MrkBomTac-Prkdc^scid) were purchased from Beijing Vital River Laboratory Animal Technology Co., Ltd and used for xenograft tumor establishment. 22Rv1 tumor cells were subcutaneously inoculated on a side of a lower abdomen of each mouse, and each mouse was injected with 3×10^6 cells. […] When the tumor volumes reached about 100 mm^3, the mice were randomly divided into groups (n=6-7 per group) and then administered through oral gavage. […] The length (L) and width (W) of the tumor mass were measured by a caliper, and the volume was expressed in mm^3 and calculated according to the following formula: V=π/6×(L×W^2). TGI was calculated according to the following formula: TGI=[1−(T−T0)/(C−C0)]×100, where T denoted a mean tumor volume on a specific day of the experiment and T0 denoted a mean tumor volume at the beginning of the treatment; similarly, C and C0 denoted a mean tumor volume on a specific day of the experiment and a mean tumor volume of a blank group at the beginning of the treatment, respectively.
Data represented mean tumor volume standard deviation (n=6-7 per group) in each treatment group.

LNCaP = test: Cell viability (Cell-Titer GLO), LNCaP
Experimental: (§1) Experimental method: 20 μL of a medium containing 500 to 1000 cells to be detected (the actual number of cells was related to cell cycle and cell volume) was plated into each well of the 384-well clear-bottom microplate. […] An inhibition curve was fitted by GraphPad Prism software, and IC50 was calculated.

C4-2B = test: Cell viability (Cell-Titer GLO), C4-2B; conditions: read-out: Cell Viability IC50 C4-2B
Experimental: as §1

22Rv1 = test: Cell viability (Cell-Titer GLO), 22Rv1
Experimental: as §1

FXR = target: T1, FXR (Homo sapiens, UniProt Q96RI1); test: Gal4-LBD luciferase selectivity test, FXR
T1 sequence (Q96RI1 262-486 limits assumed): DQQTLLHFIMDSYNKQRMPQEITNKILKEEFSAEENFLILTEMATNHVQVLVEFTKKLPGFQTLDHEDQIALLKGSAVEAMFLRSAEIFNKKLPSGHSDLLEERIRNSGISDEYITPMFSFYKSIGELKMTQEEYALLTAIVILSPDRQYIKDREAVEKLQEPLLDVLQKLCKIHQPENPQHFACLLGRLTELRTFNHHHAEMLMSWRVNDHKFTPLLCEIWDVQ
Experimental: (§2) On the day before transfection, cells were prepared in the 96-well plate with a cell density of 1.5×10^4 cells/well. After 24 hours of adherent growth, transient transfection was performed with the transfection reagent Lipo-fectamine 2000 through a method of dual reporter gene co-transfection. The transfection reagent and the plasmids were separately diluted with the Opti-MEM Reagent. […] After 24 hours of incubation, the luciferase dual reporter gene detection assay kit was used for detecting luminescence signals. Three duplicate wells were set for each sample, and IC50 values (half maximal inhibitory concentrations) were calculated by software.

RORα = target: T2, RORα (Homo sapiens, UniProt P35398); test: Gal4-LBD luciferase selectivity test, RORα
T2 sequence (P35398 272-510 limits assumed): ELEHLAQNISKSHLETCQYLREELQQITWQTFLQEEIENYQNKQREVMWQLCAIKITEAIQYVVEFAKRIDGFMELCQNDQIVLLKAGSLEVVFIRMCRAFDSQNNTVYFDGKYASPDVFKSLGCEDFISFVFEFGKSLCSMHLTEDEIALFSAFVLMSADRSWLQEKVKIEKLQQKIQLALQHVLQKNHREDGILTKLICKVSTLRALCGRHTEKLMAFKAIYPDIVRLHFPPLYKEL
Experimental: as §2

RORβ = target: T3, RORβ (Homo sapiens, UniProt Q92753); test: Gal4-LBD luciferase selectivity test, RORβ
T3 sequence (Q92753 222-460 limits assumed): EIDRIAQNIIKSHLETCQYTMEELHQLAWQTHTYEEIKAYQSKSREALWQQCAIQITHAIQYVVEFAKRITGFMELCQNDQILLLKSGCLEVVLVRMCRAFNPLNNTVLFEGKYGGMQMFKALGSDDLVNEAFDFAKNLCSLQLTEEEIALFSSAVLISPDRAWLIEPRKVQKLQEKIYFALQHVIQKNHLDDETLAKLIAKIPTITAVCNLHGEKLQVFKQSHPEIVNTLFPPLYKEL
Experimental: as §2

LXRα = target: T4, LXRα (Homo sapiens, UniProt Q13133); test: Gal4-LBD luciferase selectivity test, LXRα
T4 sequence (Q13133 209-447 limits assumed): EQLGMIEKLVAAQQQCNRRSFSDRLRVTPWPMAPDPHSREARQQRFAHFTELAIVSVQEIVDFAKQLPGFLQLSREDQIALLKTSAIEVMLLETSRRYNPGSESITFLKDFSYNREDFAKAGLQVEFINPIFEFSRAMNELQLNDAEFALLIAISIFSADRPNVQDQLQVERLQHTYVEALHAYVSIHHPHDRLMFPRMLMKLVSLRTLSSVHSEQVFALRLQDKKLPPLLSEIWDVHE
Experimental: as §2

hRORγ = target: T5, hRORγ (Homo sapiens, UniProt P51449); test: protein thermal stability shift assay (TSA); conditions: read-out: ΔTm (TSA detection technique), hRORγ 10 μM, compound 200 μM
T5 sequence (P51449 1-518): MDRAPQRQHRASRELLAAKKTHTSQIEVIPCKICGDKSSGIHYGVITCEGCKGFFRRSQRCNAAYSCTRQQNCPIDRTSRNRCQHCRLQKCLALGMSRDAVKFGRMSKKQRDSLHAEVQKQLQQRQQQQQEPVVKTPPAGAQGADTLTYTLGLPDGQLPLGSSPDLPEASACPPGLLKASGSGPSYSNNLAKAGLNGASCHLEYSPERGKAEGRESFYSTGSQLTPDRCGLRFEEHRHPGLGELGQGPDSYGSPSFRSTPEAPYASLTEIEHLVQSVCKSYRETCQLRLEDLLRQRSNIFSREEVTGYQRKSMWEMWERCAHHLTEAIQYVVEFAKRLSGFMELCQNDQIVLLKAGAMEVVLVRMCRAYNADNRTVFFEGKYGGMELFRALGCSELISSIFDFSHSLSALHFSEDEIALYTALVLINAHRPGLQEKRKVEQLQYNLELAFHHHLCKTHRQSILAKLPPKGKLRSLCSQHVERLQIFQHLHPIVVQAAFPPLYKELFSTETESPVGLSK

RORγ = target: T6, RORγ (Homo sapiens, UniProt P51449); test: luciferase dual reporter gene assay, Gal4-RORγLBD in 293T cells; conditions: IC50 (luciferase detection technique), RORγ transcriptional activity, Table 1
T6 sequence (P51449 269-508 limits assumed): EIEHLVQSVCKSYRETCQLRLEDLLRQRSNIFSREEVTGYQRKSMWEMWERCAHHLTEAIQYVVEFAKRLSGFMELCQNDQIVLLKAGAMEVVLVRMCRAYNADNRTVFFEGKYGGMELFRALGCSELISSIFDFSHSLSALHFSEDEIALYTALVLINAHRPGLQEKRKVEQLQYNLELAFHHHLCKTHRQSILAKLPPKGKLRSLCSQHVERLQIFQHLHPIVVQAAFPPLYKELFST
Experimental: On the day before transfection, cells were prepared in the 96-well plate with a cell density of 1.5×10^4 cells/well. After 24 hours of adherent growth, transient transfection was performed with the transfection reagent Lipo-fectamine 2000 through a method of dual reporter gene co-transfection. The transfection reagent and the plasmids were separately diluted with the Opti-MEM Reagent. Gal4-RORγLBD (25 ng), pG5-luc genes (25 ng) and Renilla (5 ng) were added to each well, and after 24 hours of co-transfection, compounds having different concentrations were added. After 24 hours of incubation, the luciferase dual reporter gene detection assay kit was used for detecting luminescence signals. Three duplicate wells were set for each sample, and IC50 values (half maximal inhibitory concentrations) were calculated by software.

Cmax ([1]; iv (5 mg/kg)): 18400 ng/mL
SMILES: CCS(=O)(=O)c1ccc(CC(=O)Nc2ccc(-c3nc4ccc(C(F)(F)F)cc4n3[C@H](C)c3ccc(F)cc3)cc2)cc1 [Example 67, (R)-2-(4-(ethylsulfonyl)phenyl)-N-(4-(1-(1-(4-fluorophenyl)ethyl)-6-(trifluoromethyl)-1H-benzo[d]imidazol-2-yl)phenyl)acetamide]

SMILES: CCS(=O)(=O)c1ccc(CC(=O)Nc2ccc(-c3nc4ccc(C(F)(F)F)cc4n3[C@@H](C)c3ccc(F)cc3)cc2)cc1 [Example 68, (S)-2-(4-(ethylsulfonyl)phenyl)-N-(4-(1-(1-(4-fluorophenyl)ethyl)-6-(trifluoromethyl)-1H-benzo[d]imidazol-2-yl)phenyl)acetamide]
Cmax ([1]; iv (5 mg/kg)): 14800 ng/mL
Cmax ([1]; po (25 mg/kg)): 5730 ng/mL
TGI (22Rv1 xenograft; 10 mg/kg oral): 83%
TGI (22Rv1 xenograft; 40 mg/kg oral): 109%
toxic effect (22Rv1 xenograft; 22Rv1 mouse xenograft models, all doses): without any apparent toxic effect
variations of weights of mice during administration (22Rv1 xenograft; all doses (10 and 40 mg/kg oral)): no apparent variations in weight

IC50 (LNCaP; Homo sapiens, read-out: Cell Viability IC50 LNCaP): 5.2 ± 0.14 µM
IC50 (22Rv1; Homo sapiens, 22Rv1, read-out: Cell Viability IC50 22Rv1): 10.4 ± 1.01 µM
IC50 (FXR): > 20 µM
IC50 (RORα): > 20 µM
IC50 (RORβ): > 20 µM
IC50 (LXRα): > 20 µM
ΔTm at 200 µM (hRORγ): < 5 °C
IC50 (RORγ): < 0.1 µM
SMILES: CCS(=O)(=O)c1ccc(C(NC(C)=O)C(=O)Nc2ccc(-c3nc4ccc(C)cc4n3[C@@H](C)c3ccc(C)cc3)cc2)cc1 (single isomer, unassigned) [Example 74]
IC50 (C4-2B): 4.19 ± 0.34 µM

ΔTm at 200 µM (hRORγ): 5 to 10 °C
IC50 (RORγ): 1 to 10 µM
SMILES: CCS(=O)(=O)c1ccc(C(NC(C)=O)C(=O)Nc2ccc(-c3nc4cc(C(=O)NC(C)C)ccc4n3[C@@H](C)c3ccc(C)cc3)nc2)cc1 (stereo partly drawn) [Example 84, 2-(5-(2-acetylamino-2-(4-(ethylsulfonyl)phenyl)acetylamino)pyridin-2-yl)-N-isopropyl-1-((S)-1-(p-tolyl)ethyl)-1H-benzo[d]imidazol-5-formamide]

ΔTm at 200 µM (hRORγ): < 5 °C
IC50 (RORγ): 0.1 to 1 µM
SMILES: CCS(=O)(=O)c1ccc(CC(=O)Nc2ccc(-c3nc4cc(C)c(C)cc4n3Cc3ccccc3)cc2)cc1 [Example 85, N-(4-(1-benzyl-5,6-dimethyl-1H-benzo[d]imidazol-2-yl)phenyl)-2-(4-(ethylsulfonyl)phenyl)acetamide]

ΔTm at 200 µM (hRORγ): < 5 °C
IC50 (RORγ): 0.1 to 1 µM
SMILES: CCS(=O)(=O)c1ccc(CC(=O)Nc2ccc(-c3nc4cc(Cl)c(Cl)cc4n3Cc3ccccc3)cc2)cc1 [Example 86, N-(4-(1-benzyl-5,6-dichloro-1H-benzo[d]imidazol-2-yl)phenyl)-2-(4-(ethylsulfonyl)phenyl)acetamide]

IC50 (LNCaP; read-out: Cell Viability IC50 LNCaP, 72-96 h): 6.14 ± 0.04 µM
IC50 (22Rv1; read-out: Cell Viability IC50 22Rv1, 22Rv1, 72-96 h): 13.3 ± 1.22 µM
SMILES: OC(c1ccc(-c2ccc(CN3CCN(Cc4ccncc4)CC3)cc2)c(F)c1)(C(F)(F)F)C(F)(F)F [SR2211, reference compound]
IC50 (C4-2B; C4-2B, 72-96 h): 5.38 ± 0.27 µM

ΔTm at 200 µM (hRORγ): 5 to 10 °C
IC50 (RORγ): 1 to 10 µM
SMILES: CCS(=O)(=O)c1ccc(C(NC(C)=O)C(=O)Nc2ccc(-c3nc4cc(C(=O)NC(C)C)ccc4n3[C@@H](C)c3ccc(C)cc3)cc2)cc1 (stereo partly drawn) [Example 79, 2-(4-(2-acetylamino-2-(4-(ethylsulfonyl)phenyl)acetylamino)phenyl)-N-isopropyl-1-((S)-1-(p-tolyl)ethyl)-1H-benzo[d]imidazol-5-formamide]

ΔTm at 200 µM (hRORγ): > 10 °C
IC50 (RORγ): 10 to 100 µM
SMILES: Cc1ccc(CC(=O)Nc2ccc(-c3nc4ccc(C)cc4s3)cc2)cc1 [Example 27, N-(4-(6-methylbenzo[d]thiazol-2-yl)phenyl)-2-(p-tolyl)acetamide]

ΔTm at 200 µM (hRORγ): > 10 °C
IC50 (RORγ): < 0.1 µM
SMILES: CCCCCCC(=O)Nc1ccc(-c2nc3ccc(C)cc3s2)cc1 [Example 26, N-(4-(6-methylbenzo[d]thiazol-2-yl)phenyl)heptanamide]

ΔTm at 200 µM (hRORγ): 5 to 10 °C
IC50 (RORγ): 1 to 10 µM
SMILES: CCS(=O)(=O)c1ccc(CC(=O)Nc2ccc(-c3nc4ccc(F)cc4s3)cc2)cc1 [Example 30, 2-(4-(ethylsulfonyl)phenyl)-N-(4-(6-fluorobenzo[d]thiazol-2-yl)phenyl)acetamide]
